The target of the experiment is T1, human adenosine A2b receptor (Homo sapiens, UniProt P29275).
T1 construct: expressed in transfected cells; host or cells: CHO-K1 (Chinese Hamster Ovary) with CRE-luciferase reporter
T1 sequence (P29275 1-332): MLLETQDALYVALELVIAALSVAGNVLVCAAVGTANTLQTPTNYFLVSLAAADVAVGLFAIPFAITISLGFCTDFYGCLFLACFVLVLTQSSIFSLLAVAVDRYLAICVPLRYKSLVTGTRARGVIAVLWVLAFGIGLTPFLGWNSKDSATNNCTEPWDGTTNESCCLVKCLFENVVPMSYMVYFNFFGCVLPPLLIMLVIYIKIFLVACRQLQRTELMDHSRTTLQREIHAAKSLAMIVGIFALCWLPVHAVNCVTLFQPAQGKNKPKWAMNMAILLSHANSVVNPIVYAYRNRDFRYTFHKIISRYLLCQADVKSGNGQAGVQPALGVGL
As to the kind of experiment: Cellular reporter gene (CRE-luciferase) A2b receptor antagonist assay in recombinant CHO-K1 cells stimulated with NECA. It is filed as cell-based. As to conditions: recombinant CHO-K1 cell line, co-incubation with EC50 concentration of NECA, 3 hours, in some cases means, rounded to two significant digits. The gist of the method:
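CHO-K1 cells expressing human A2b receptor with a CRE-driven firefly luciferase reporter, co-incubated with test compound and NECA at its same-day EC50 concentration. Luminescence read 3 hours after NECA addition.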

pIC50: −log10 of the molar value.

For `Cc1c(C(=O)N2CCC(O)CC2)sc2c1c(=O)n(CC(O)c1ccccc1)c(=O)n2CCC(F)(F)F` (single isomer, unassigned) [Example 101, 3-(2-Hydroxy-2-phenylethyl)-6-[(4-hydroxypiperidin-1-yl)carbonyl]-5-methyl-1-(3,3,3-trifluoropropyl)thieno[2,3-d]pyrimidine-2,4(1H,3H)-dione], the pIC50 is 5.92. As for `CCn1c(=O)c2c(C)c(C(=O)N3CCC(O)(CO)CC3)sc2n(CCOC(F)(F)F)c1=O` [Example 75, 3-Ethyl-6-{[4-hydroxy-4-(hydroxymethyl)piperidin-1-yl]carbonyl}-5-methyl-1-[2-(trifluoromethoxy)ethyl]thieno[2,3-d]pyrimidine-2,4(1H,3H)-dione], the pIC50 was 7.48.

Take `CCCn1c(=O)c2c(C)c(C(=O)N3CCNC(=O)C3)sc2n(CCOC(F)(F)F)c1=O` [Example 96, 5-Methyl-6-[(3-oxopiperazin-1-yl)carbonyl]-3-propyl-1-[2-(trifluoromethoxy)ethyl]thieno[2,3-d]pyrimidine-2,4(1H,3H)-dione]: the pIC50 is 7.19.

For the compound `CC(C)Cn1c(=O)c2c(C(F)F)c(C(=O)N3CCC(O)CC3)sc2n(CCC(F)(F)F)c1=O` [Example 139, 5-(Difluoromethyl)-6-[(4-hydroxypiperidin-1-yl)carbonyl]-3-isobutyl-1-(3,3,3-trifluoropropyl)thieno[2,3-d]pyrimidine-2,4(1H,3H)-dione], the pIC50 is 7.41. The figure for `CCCn1c(=O)c2c(C(F)F)c(C(=O)N3CCC(C)(O)CC3)sc2n(CCOC(F)(F)F)c1=O` [Example 151, 5-(Difluoromethyl)-6-[(4-hydroxy-4-methylpiperidin-1-yl)carbonyl]-3-propyl-1-[2-(trifluoromethoxy)ethyl]thieno[2,3-d]pyrimidine-2,4(1H,3H)-dione] is 7.85. Turning to `Cc1c(C(=O)N2CCC(O)CC2)sc2c1c(=O)n(CCc1cnccn1)c(=O)n2CCC(F)(F)F` [Example 17, 6-[(4-Hydroxypiperidin-1-yl)carbonyl]-5-methyl-3-[2-(pyrazin-2-yl)ethyl]-1-(3,3,3-trifluoropropyl)thieno[2,3-d]pyrimidine-2,4(1H,3H)-dione], the pIC50 is 6.46. For the compound `Cc1c(C(=O)N2CCC(O)CC2)sc2c1c(=O)n(CC(C)C)c(=O)n2CCC(F)(F)F` [Example 64, 6-[(4-Hydroxypiperidin-1-yl)carbonyl]-3-isobutyl-5-methyl-1-(3,3,3-trifluoropropyl)thieno[2,3-d]pyrimidine-2,4(1H,3H)-dione], the pIC50 is 7.35.

In the case of `COC(Cn1c(=O)c2c(C)c(C(=O)N3CCC(O)CC3)sc2n(CCC(F)(F)F)c1=O)c1ccccc1` (single isomer, unassigned; enantiomer 2) [Example 47, 6-[(4-Hydroxypiperidin-1-yl)carbonyl]-3-(2-methoxy-2-phenylethyl)-5-methyl-1-(3,3,3-trifluoropropyl)thieno[2,3-d]pyrimidine-2,4(1H,3H)-dione (enantiomer 2)], the pIC50 was 8.36. With `CCn1c(=O)c2c(C(F)F)c(C(=O)N3CCC(O)(CO)CC3)sc2n(CCC(F)(F)F)c1=O` [Example 126], the pIC50 is 7.08. The figure for `COCCn1c(=O)n(CCc2ccccc2)c(=O)c2c(C)c(C(=O)N3CCC(O)CC3)sc21` [Example 3, 6-[(4-Hydroxypiperidin-1-yl)carbonyl]-1-(2-methoxyethyl)-5-methyl-3-(2-phenylethyl)thieno [2,3-d]pyrimidine-2,4(1H,3H)-dione] is 6.54. Under `CCn1c(=O)c2c(C(F)F)c(C(=O)N3CCC(O)CC3)sc2n(CCOC(F)(F)F)c1=O` [Example 123, 5-(Difluoromethyl)-3-ethyl-6-[(4-hydroxypiperidin-1-yl)carbonyl]-1-[2-(trifluoromethoxy)ethyl]thieno[2,3-d]pyrimidine-2,4(1H,3H)-dione] stands 7.74; under `CCn1c(=O)c2c(C(F)(F)F)c(C(=O)N3CCC(O)CC3)sc2n(CCC(F)(F)F)c1=O` [Example 25, 3-Ethyl-6-[(4-hydroxypiperidin-1-yl)carbonyl]-5-(trifluoromethyl)-1-(3,3,3-trifluoropropyl)thieno[2,3-d]pyrimidine-2,4(1H,3H)-dione], 7.31. Under `COC(Cn1c(=O)c2c(C)c(C(=O)N3CCC(O)CC3)sc2n(CCC(F)(F)F)c1=O)C(F)(F)F` (single isomer, unassigned) [Example 107, 6-[(4-Hydroxypiperidin-1-yl)carbonyl]-5-methyl-3-(3,3,3-trifluoro-2-methoxypropyl)-1-(3,3,3-trifluoropropyl)thieno[2,3-d]pyrimidine-2,4(1H,3H)-dione] stands 7.35; under `CCn1c(=O)c2c(C)c(C(=O)N3CCNC(=O)C3)sc2n(CCC=C(F)F)c1=O` [Example 36, 1-(4,4-Difluorobut-3-en-1-yl)-3-ethyl-5-methyl-6-[(3-oxopiperazin-1-yl)carbonyl]thieno[2,3-d]pyrimidine-2,4(1H,3H)-dione], 6.70; under `CCn1c(=O)c2c(C(F)F)c(C(=O)N3CCC(O)CC3)sc2n(CCC(F)(F)F)c1=O` [Example 122, 5-(Difluoromethyl)-3-ethyl-6-[(4-hydroxypiperidin-1-yl)carbonyl]-1-(3,3,3-trifluoropropyl)thieno[2,3-d]pyrimidine-2,4(1H,3H)-dione], 7.49. Take `Cc1c(C(=O)N2CCNC(=O)C2)sc2c1c(=O)n(CCc1cccnc1)c(=O)n2CCC=C(F)F` [Example 34, 1-(4,4-Difluorobut-3-en-1-yl)-5-methyl-6-[(3-oxopiperazin-1-yl)carbonyl]-3-[2-(pyridin-3-yl)ethyl]thieno[2,3-d]pyrimidine-2,4(1H,3H)-dione]: the pIC50 is 6.92. In the case of `COCCn1c(=O)c2c(C)c(C(=O)N3CCC(O)CC3)sc2n(CCC(F)(F)F)c1=O` [Example 62, 6-[(4-Hydroxypiperidin-1-yl)carbonyl]-3-(2-methoxyethyl)-5-methyl-1-(3,3,3-trifluoropropyl)thieno[2,3-d]pyrimidine-2,4(1H,3H)-dione], the pIC50 is 6.92.

Regarding `CCn1c(=O)c2c(C)c(C(=O)N3CCC(O)C(O)C3)sc2n(CCC(F)(F)F)c1=O` (single isomer, unassigned) [Example 120, 6-[(3,4-Dihydroxypiperidin-1-yl)carbonyl]-3-ethyl-5-methyl-1-(3,3,3-trifluoropropyl)thieno [2,3-d]pyrimidine-2,4(1H,3H)-dione], the pIC50 was 6.89.

With `CCn1c(=O)c2c(C)c(C(=O)N3CCC(O)C(O)C3)sc2n(CCC(F)(F)F)c1=O` (single isomer, unassigned) [Example 118, 6-[(3,4-Dihydroxypiperidin-1-yl)carbonyl]-3-ethyl-5-methyl-1-(3,3,3-trifluoropropyl)thieno [2,3-d]pyrimidine-2,4(1H,3H)-dione], the pIC50 is 6.70. The figure for `Cc1c(C(=O)N2CCC(O)CC2)sc2c1c(=O)n(CC(O)c1ccccc1)c(=O)n2CCC(F)(F)F` (single isomer, unassigned) [Example 100, 3-(2-Hydroxy-2-phenylethyl)-6-[(4-hydroxypiperidin-1-yl)carbonyl]-5-methyl-1-(3,3,3-trifluoropropyl)thieno[2,3-d]pyrimidine-2,4(1H,3H)-dione] is 7.54.

These data come from patent publication US9604996B2 (Bayer Pharma Aktiengesellschaft, priority 2013, dated 2017).
